In patent US8071625B2, “Certain chemical entities, compositions, and methods” (Cytokinetics, Inc., priority 2006, dated 2011):

target: T1, crosslinked smooth muscle actomyosin (chicken gizzard smooth muscle myosin subfragment-1 crosslinked to cardiac or skeletal actin) (Gallus gallus, UniProt P10587); test: Lead optimization pyruvate kinase/horseradish peroxidase/pyruvate oxidase-coupled ATPase assay (compound dose response); type: biochemical; conditions: read-out: IC50 Arithmetic Mean
T1 construct: chicken gizzard smooth muscle myosin subfragment-1; from tissue; host or cells: chicken gizzard
Method in brief: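 IC50 is the midpoint of a 4-parameter dose–response fit of Amplex Red fluorescence (480/615 nm). Buffer was 12 mM potassium PIPES pH 7.00 at 22 °C with 100 mM KCl, 2 mM MgCl2, 0.15 mM ATP and 2 mM phosphate, with PK/pyruvate oxidase/HRP coupling. Enzyme: smooth muscle myosin S1 crosslinked to cardiac or skeletal actin, dosed empirically by activity.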

IC50 [nM] | Structure (SMILES)
9210 | NCC(=O)N1CCC(COC(=O)Nc2ccccc2)(C(=O)NCc2ccccc2Cl)CC1 [{1-(2-aminoacetyl)-4-[(N-phenylcarbamoyloxy)methyl](4-piperidyl)}-N-[(2-chlorophenyl)methyl]carboxamide]
2830 | CCc1ccc(NC(=O)OCCN(CCN)C(=O)NCc2ccccc2Cl)cc1 [N-(2-aminoethyl){[(2-chlorophenyl)methyl]amino}-N-{2-[N-(4-ethylphenyl)carbamoyloxy]ethyl}carboxamide]
83 | CCc1ccc(NC(=O)OCC2(C(=O)NCc3cccc(Cl)c3C)CCN(C(=O)CN)CC2)cc1 [[(1-(2-aminoacetyl)-4-{N-[(3-chloro-2-methylphenyl)methyl]carbamoyl}(4-piperidyl))methoxy]-N-(4-ethylphenyl)carboxamide]
808 | CCc1ccc(NC(=O)OCC2(C(=O)NCc3ccccc3Cl)CCN(C(=O)C3CCNCC3)CC2)cc1 [N-[(2-chlorophenyl)methyl](4-{[N-(4-ethylphenyl)carbamoyloxy]methyl}-1-(4-piperidylcarbonyl)(4-piperidyl))carboxamide]
16200 | Cc1c(Cl)cccc1NC(=O)OCC1(C(=O)NCc2ccccc2Cl)CCOCC1 [(4-{[N-(3-chloro-2-methylphenyl)carbamoyloxy]methyl}(2H-3,4,5,6-tetrahydropyran-4-yl))-N-[(2-chlorophenyl)methyl]carboxamide]
1960 | Cc1ccc(NC(=O)OCC2(C(=O)NCc3ccccc3Cl)CCOCC2)cc1Cl [(4-{[N-(3-chloro-4-methylphenyl)carbamoyloxy]methyl}(2H-3,4,5,6-tetrahydropyran-4-yl))-N-[(2-chlorophenyl)methyl]carboxamide]
4930 | CCc1ccc(NC(=O)OCC2(C(=O)NCc3ccccc3Cl)CCN(C)CC2)cc1 [N-[(2-chlorophenyl)methyl](4-{[N-(4-ethylphenyl)carbamoyloxy]methyl}-1-methyl(4-piperidyl))carboxamide]
7220 | CCc1ccc(NC(=O)OCC2(C(=O)NCc3ccccn3)CCN(C(=O)CN)CC2)cc1 [({1-(2-aminoacetyl)-4-[N-(2-pyridylmethyl)carbamoyl](4-piperidyl)}methoxy)-N-(4-ethylphenyl)carboxamide]
138 | N[C@@H](CO)C(=O)N1CCC(COC(=O)Nc2ccc(C(F)(F)F)cc2)(C(=O)NCc2ccccc2Cl)CC1 [[1-((2S)-2-amino-3-hydroxypropanoyl)-4-({N-[4-(trifluoromethyl)phenyl]carbamoyloxy}methyl)(4-piperidyl)]-N-[(2-chlorophenyl)methyl]carboxamide]
164 | CCc1ccc(NC(=O)OCC2(C(=O)NCc3ccccc3Cl)CCN(C(=O)[C@H](N)CO)CC2)cc1 [(1-((2R)-2-amino-3-hydroxypropanoyl)-4-{[N-(4-ethylphenyl)carbamoyloxy]methyl}(4-piperidyl))-N-[(2-chlorophenyl)methyl]carboxamide]
14600 | NCC(=O)N1CCC(COC(=O)Nc2ccc(F)cc2)(C(=O)NCc2ccccc2Cl)CC1 [(1-(2-aminoacetyl)-4-{[N-(4-fluorophenyl)carbamoyloxy]methyl}(4-piperidyl))-N-[(2-chlorophenyl)methyl]carboxamide]
17500 | CCc1ccc(NC(=O)OCCN(C)C(=O)C(O)Cc2ccccc2C(F)(F)F)cc1 (centres unmarked) [N-{2-[N-(4-ethylphenyl)carbamoyloxy]ethyl}-2-hydroxy-N-methyl-3-[2-(trifluoromethyl)phenyl]propanamide]
2080 | CCc1ccc(NC(=O)OCCN(C)C(=O)N(C)Cc2ccccc2Cl)cc1 [{[(2-chlorophenyl)methyl]methylamino}-N-{2-[N-(4-ethylphenyl)carbamoyloxy]ethyl}-N-methylcarboxamide]
496 | CCc1ccc(NC(=O)OCC2(C(=O)NCc3ccccc3Cl)CCN(S(C)(=O)=O)CC2)cc1 [N-[(2-chlorophenyl)methyl](4-{[N-(4-ethylphenyl)carbamoyloxy]methyl}-1-(methylsulfonyl)(4-piperidyl))carboxamide]
274 | CCc1ccc(NC(=O)OCC2(C(=O)NCc3ccccc3Cl)CCN(S(=O)(=O)CCN)CC2)cc1 [(1-[(2-aminoethyl)sulfonyl]-4-{[N-(4-ethylphenyl)carbamoyloxy]methyl}(4-piperidyl))-N-[(2-chlorophenyl)methyl]carboxamide]
1480 | CCc1ccc(NC(=O)OCC2(C(=O)NCc3ccccc3Cl)CCCN(C(=O)[C@@H](N)CO)C2)cc1 (stereo partly drawn) [(1-((2S)-2-amino-3-hydroxypropanoyl)-3-{[N-(4-ethylphenyl)carbamoyloxy]methyl}(3-piperidyl))-N-[(2-chlorophenyl)methyl]carboxamide]
1670 | CCc1ccc(NC(=O)OCCCN(C)C(=O)NCc2ccccc2Cl)cc1 [{[(2-chlorophenyl)methyl]amino}-N-{3-[N-(4-ethylphenyl)carbamoyloxy]propyl}-N-methylcarboxamide]

IC50 [nM] | Structure (SMILES)
1520 | CCc1ccc(NC(=O)OCC2(C(=O)NCc3ccccc3Cl)CCN(CC(=O)OC)CC2)cc1 [methyl 2-(4-{N-[(2-chlorophenyl)methyl]carbamoyl}-4-{[N-(4-ethylphenyl)carbamoyloxy]methyl}piperidyl)acetate]
197 | CCc1ccc(NC(=O)OCC2(C(=O)NCc3ccc(Cl)cc3Cl)CCN(C(=O)CN)CC2)cc1 [[(1-(2-aminoacetyl)-4-{N-[(2,4-dichlorophenyl)methyl]carbamoyl}(4-piperidyl))methoxy]-N-(4-ethylphenyl)carboxamide]
18500 | CCc1ccc(NC(=O)CCC(C)(C)C(=O)NCc2ccccc2Cl)cc1 [N-[(2-chlorophenyl)methyl]-N′-(4-ethylphenyl)-2,2-dimethylpentane-1,5-diamide]
526 | CCc1ccc(NC(=O)OCC2(C(=O)NCc3ccccc3Cl)CCN(C(=O)CN)C2)cc1 (centres unmarked) [(1-(2-aminoacetyl)-3-{[N-(4-ethylphenyl)carbamoyloxy]methyl}pyrrolidin-3-yl)-N-[(2-chlorophenyl)methyl]carboxamide]
3240 | N#Cc1ccccc1CNC(=O)C1(COC(=O)Nc2ccc(C(F)(F)F)cc2)CCN(C(=O)CN)CC1 [[1-(2-aminoacetyl)-4-({N-[4-(trifluoromethyl)phenyl]carbamoyloxy}methyl)(4-piperidyl)]-N-[(2-cyanophenyl)methyl]carboxamide]
18200 | CCc1ccc(CC(=O)NCC2(C(=O)NCc3ccccc3Cl)CC2)cc1 [N-[({N-[(2-chlorophenyl)methyl]carbamoyl}cyclopropyl)methyl]-2-(4-ethylphenyl)acetamide]
15200 | O=C(Nc1ccccc1)OCC1(C(=O)NCc2ccccc2Cl)CCOCC1 [N-[(2-chlorophenyl)methyl]{4-[(N-phenylcarbamoyloxy)methyl](2H-3,4,5,6-tetrahydropyran-4-yl)}carboxamide]
17300 | O=C(Nc1ccccc1Cl)OCC1(C(=O)NCc2ccccc2Cl)CCOCC1 [(4-{[N-(2-chlorophenyl)carbamoyloxy]methyl}(2H-3,4,5,6-tetrahydropyran-4-yl))-N-[(2-chlorophenyl)methyl]carboxamide]
30 | CN(CCOC(=O)Nc1ccc2ccccc2c1)C(=O)NCc1ccccc1Cl [{[(2-chlorophenyl)methyl]amino}-N-methyl-N-[2-(N-(2-naphthyl)carbamoyloxy)ethyl]carboxamide]
412 | Cc1c(F)cccc1CNC(=O)C1(COC(=O)Nc2ccc(C(F)(F)F)cc2)CCN(C(=O)CN)CC1 [[(1-(2-aminoacetyl)-4-{N-[(3-fluoro-2-methylphenyl)methyl]carbamoyl}(4-piperidyl))methoxy]-N-[4-(trifluoromethyl)phenyl]carboxamide]
1030 | CCc1ccc(NC(=O)OCC2(C(=O)NCc3cccc(F)c3)CCN(C(=O)CN)CC2)cc1 [[(1-(2-aminoacetyl)-4-{N-[(3-fluorophenyl)methyl]carbamoyl}(4-piperidyl))methoxy]-N-(4-ethylphenyl)carboxamide]
418 | CCc1ccc(NC(=O)OCC2(C(=O)NCc3ccccc3Cl)CCN(C(C)=O)CC2)cc1 [(1-acetyl-4-{[N-(4-ethylphenyl)carbamoyloxy]methyl}(4-piperidyl))-N-[(2-chlorophenyl)methyl]carboxamide]
277 | NCC(=O)N1CCC(COC(=O)Nc2ccc(-c3ccccc3)cc2)(C(=O)NCc2ccccc2Cl)CC1 [(1-(2-aminoacetyl)-4-{[N-(4-phenylphenyl)carbamoyloxy]methyl}(4-piperidyl))-N-[(2-chlorophenyl)methyl]carboxamide]
2980 | CCc1ccc(NC(=O)OCC2(C(=O)NCc3ncccc3C)CCN(C(=O)CN)CC2)cc1 [[(1-(2-aminoacetyl)-4-{N-[(3-methyl(2-pyridyl))methyl]carbamoyl}(4-piperidyl))methoxy]-N-(4-ethylphenyl)carboxamide]
307 | CCc1ccc(NC(=O)OCC2(C(=O)NCc3ccccc3F)CCN(C(=O)CN)CC2)cc1 [(1-(2-aminoacetyl)-4-{[N-(4-ethylphenyl)carbamoyloxy]methyl}(4-piperidyl))-N-[(2-fluorophenyl)methyl]carboxamide]
1490 | CCc1ccc(NC(=O)OCC2(C(=O)NCc3ccccc3Cl)CCN(C(=O)C(N)CCCN)CC2)cc1 (centres unmarked) [(1-(2,5-diaminopentanoyl)-4-{[N-(4-ethylphenyl)carbamoyloxy]methyl}(4-piperidyl))-N-[(2-chlorophenyl)methyl]carboxamide]
498 | CC(C)c1ccc(NC(=O)OCC2(C(=O)NCc3ccccc3Cl)CCOCC2)cc1 [N-[(2-chlorophenyl)methyl][4-({N-[4-(methylethyl)phenyl]carbamoyloxy}methyl)(2H-3,4,5,6-tetrahydropyran-4-yl)]carboxamide]

Structure (SMILES) | IC50 [nM]
CCc1ccc(NC(=O)OCC2(C(=O)NCc3ccccc3Cl)CCN(C(=O)[C@H](C)NC(=O)OC(C)(C)C)CC2)cc1 [N-[(1S)-2-(4-{N-[(2-chlorophenyl)methyl]carbamoyl}-4-{[N-(4-ethylphenyl)carbamoyloxy]methyl}piperidyl)-1-methyl-2-oxoethyl](tert-butoxy)carboxamide] | 1510
